The nature of the data set: xn = mol fraction of the nth substance listed. As to conditions: 101 kPa.

For orientation: viscosity means the resistance of a fluid to flow. A low value points to a thin fluid. Regarding `O` + CC(=O)[O-].Cn1cc[nH+]c1, the viscosity was found to be 1.002 mPa·s (293.15 K, x1 = 1); 0.89 mPa·s (298.15 K, x1 = 1); 0.797 mPa·s (303.15 K, x1 = 1); 0.651 mPa·s (313.15 K, x1 = 1).
Consider `CC(=O)[O-].Cn1cc[nH+]c1` + O, for which the viscosity by setting is: (293.15 K, x2 = 0) 8.2 mPa·s; (298.15 K, x2 = 0) 6.93 mPa·s; (303.15 K, x2 = 0.7993) 5.76 mPa·s; (308.15 K, x2 = 0) 5.07 mPa·s. The electrical conductivity is, setting by setting: (298.15 K, x1 = 0.002) 0.522 S/m; (298.15 K, x1 = 0.0071) 1.51 S/m; (298.15 K, x1 = 0.01) 1.92 S/m; (298.15 K, x2 = 0) 0.371 S/m; (298.15 K, x2 = 0.1092) 0.433 S/m; (298.15 K, x2 = 0.2563) 0.553 S/m. Besides, the electrical conductivity reads like this: (298.15 K, x2 = 0.5026) 0.858 S/m; (298.15 K, x2 = 0.6515) 1.21 S/m; (298.15 K, x2 = 0.8065) 2 S/m; (298.15 K, x2 = 0.8514) 2.52 S/m; (298.15 K, x2 = 0.9001) 3.27 S/m; (298.15 K, x2 = 0.9252) 3.73 S/m.

Source of the values: a compilation of properties of binary mixtures (doi:10.1016/j.molliq.2014.05.027).
